Series [1] relates to mBSA-induced arthritis in Balb-C mice. Put plainly: Antigen-induced arthritis (AIA) model, mBSA-induced monoarthritis. The series is classed as in vivo. As for the experimental part:
Antigen-induced arthritis (AIA) is an animal model of arthritis that is broadly described and used in worldwide literature. One of the inducing antigens in this model in Balb-C mice is methylated bovine serum albumin (mBSA), which, after systemic immunization (subcutaneous injection) is injected into the joint.
Briefly, mice were immunized in three steps with mBSA (day-0, day-7 and day-14), the first step comprising […] of mBSA protein in an emulsion of 0.1 mL of complete Freund's adjuvant's (CFA) and 0.1 mL of sterile saline solution (0.9% sodium chloride), the second and third steps were performed with the same protein concentration, the same sterile saline solution concentration and the same adjuvant concentration, but in these steps incomplete Freund's adjuvant (IFA) was used; 3 weeks after the first immunization (day 21) mBSA at a concentration of 30 ug/mL were injected into the femorotibial joint (knee) and the contralateral knee was administered with sterile saline only and serves as the control of the experiment (Grespan et al. 2008). […] Treatment with montanine was given twice daily, one day before intra-articular challenge, at the day of the challenge and at day of death, by intraperitoneal route and diluted in saline. Doses tested were 0.3; 1; 3 mg/kg. One group of animals received the treatment vehicle (saline) for control purposes, said group being designated positive control. The experiment is terminated at day 22 (24 hours after challenge and treatment) when animals were euthanized to collect the joint lavage fluid. Lavage was performed using a PBS-EDTA solution and then the number of leukocytes existing in the joint was counted in a Neubauer chamber at a 1:2 dilution with Turk's solution. Furthermore, pain of the animals was assessed in a digital analgesia-meter (von Frey) prior to intra-articular injection at time 0 (zero), 3, 5 and 24 hours after intra-articular challenge.

For series [2], the system named is collagen type II-induced arthritis in DBA/1J mice. Put plainly: Collagen-induced arthritis (CIA) model with prophylactic treatment. Type of series: in vivo. Here is the method: The chronic arthritis model most widely used in the world literature is the model of collagen type II-induced arthritis (CIA). Said model shares many pathological features with the disease, such as type II collagen (CM), the major cartilage protein and one of the potential RA self-antigens. […]
After the boost injection, treatment at dosages of 0.05; 0,25 and 0.5 mg/kg was started and continued for 15 days (twice daily, intraperitoneally) and animals were monitored daily for clinical signs of the disease.
Animals were monitored daily for analyzing the clinical signs of arthritis by means of the severity score as follows: 0—no signs of disease; 1—mild erythema and edema; 2—moderate erythema and edema; 3—severe erythema and edema extending from the knee to the metatarsus; 4—severe erythema and edema with loss of function. […]
The tibio-tarsal joints of DBA/1 J animals were isolated and immersed in 10% buffered formalin for fixation for 24 hours. […] All the cuts were assessed under a microscope by two blinded observers, and the images captured by digital camera.

The test system is the same in series [3]. Put plainly: Collagen-induced arthritis (CIA) model with therapeutic treatment. The series is classed as in vivo. As for the experimental part: CIA induction is performed by following the aforementioned protocol.
After the boost injection, animals were monitored daily for clinical signs of the disease and treatment with montanine at 0.5 and 1.5 mg/kg is started on the day of clinical detection of CIA. Animals given sterile saline, the treatment vehicle, were deemed as the positive control group, i.e. untreated. The drug was administered twice daily for 10 days by the intraperitoneal route.
Animals were monitored daily for analyzing the clinical signs of arthritis by means of the severity score as follows: 0-no signs of disease; 1-mild erythema and edema; 2-moderate erythema and edema; 3-severe erythema and edema extending from the knee to the metatarsus; 4-severe erythema and edema with loss of function. The total score is the average of the scores on the legs from the onset of the disease.
Articular hypernociception was assessed as previously described by Pinto LG et al. 2010. For this model, a polypropylene tip was adapted to the manual force transducer, a force was applied on the subplantar surface of the paw producing tibiotarsal bending motion. The automatic pressure meter recorded the strength of the applied force when the paw is removed. The assay is repeated 3 times sequentially to provide a consistent measurement, the limiar being expressed in grams (g).
The tibio-tarsal joints of DBA/1 J animals were isolated and immersed in 10% buffered formalin for fixation for 24 hours. Then, tissues were decalcified in 10% trichloroacetic acid (TCA) for approximately 18 hours. These tissues were dehydrated and embedded in paraffin blocks. Six pm-thick cuts were arranged on a microscope slide. […] All the cuts were assessed under a microscope by two blinded observers, and the images captured by digital camera.

In series [4] the test system is healthy mice. Put plainly: Immunosuppression assay in healthy animals (complete blood count). The note with it: 0.5 or 1.5 mg/kg every 12 hours for 3 days, then 3 days without treatment. The series is classed as in vivo. As for the experimental part: An immunosuppression assay in healthy animals was performed to assess the role of montanine as an immunosuppressive agent. 20 male, healthy mice of 8-12 weeks of age were used for examining the whole blood (complete blood count—parameters of: total of white blood cells (WBC); % lymphocytes (Lin %), lymphocytes/mm3 (Lin mm30; % monocytes (Mon %); monocytes/mm3 (Mon mm3); % granulocytes (Gran %); granulocytes/mm3 (Gran/mm3); total of red blood cells (RBC); hemoglobin (HGB) and total of platelets (PLQ)) of animals, which were divided as follows: healthy animals (with no treatment given) (n=4), animals treated with 0.5 or 1.5 mg/kg de montanine/12-12 hours (n=8/group). Whole blood was collected at day 0 for basal analysis of the blood parameters of the complete blood count in all animals, they were then treated for 3 days with the two doses and on the third day blood was collected again for complete blood count analysis; also, animals were still alive for three more days without any treatment for a new blood collection (FIG. 9).

The test system of series [5] is lymphocytes from draining lymph nodes. Description: Lymphocyte viability test (MTT). The series is classed as cell-based. Particulars: 48 hours. As for the experimental part:
A lymphocyte viability test was performed to evaluate the cytotoxicity of montanine using a colorimetric MTT [3-(4,5-dimethylthiazol-2-yl)-2,5-diphenyl tetrazolium bromide] assay, as described by Tomita T. et al. 2006. Animals were euthanized and their draining lymph nodes (popliteal and inguinal) were removed aseptically. A single cell suspension was prepared, grown in triplicate (5×10^5 cells/well in a 96 well plate) and treated with montanine at the dosages (0.01 μM, 0.1 μM, 1 μM, 10 μM and 100 μM) for 48 hours at 37° C. at 5% CO2 in RPMI medium. After incubation, MTT (0.5 mg/ml) was added to each well and the plate was placed in the stove again and after 4 hours the supernatant was removed and 50 μI of dimethyl sulphoxide (DMSO, Sigma) were added. After the plate was shaken to dissolve the MTT formazan crystals, optical density (OD) of each well was measured at 570 nm using a microplate ELISA reader.

For series [6] the test system is unchanged. Description: Lymphocyte proliferation assay (MTT), LPS or ConA stimulated. Type of series: cell-based, BALB/c mice. The note with it: 1 μM, 48 h. As for the experimental part: The in vitro lymphocyte proliferation was performed using the MTT colorimetric assay described by Tomita T et al. 2006. BALB/c mice were euthanized and their draining lymph nodes were removed aseptically. A single cell suspension was prepared, grown in triplicate (5×10^5 cells/well in a 96 well plate) and treated with montanine at the dosages of 1 μM for 48 h at 37° C. at 5% CO2 in RPMI medium containing […] lipopolysaccharide (LPS) or […] of conconavalin A (ConA) or RPMI medium alone as a culture control. After incubation, MTT (0.5 mg/ml) was added to each well and the plate was placed in the stove again and after 4 hours the supernatant was removed and 50 μI of dimethyl sulphoxide (DMSO, Sigma) were added. […] After the plate was shaken to dissolve the formazan crystals, optical density (OD) of each well was measured at 570 nm.
LPS acts primarily on the B cell receptor and the Toll-like receptor 4 (TLR4), molecules that are present on the surface of B lymphocytes, thus acting on these cells. ConA acts on several receptors containing glycoproteins or lipoproteins, stimulating both lymphocytes both but acting preferably on T lymphocytes.

For series [7], the system named is synovial fibroblasts. Put plainly: Synovial fibroblast invasion test (matrigel inserts). Type of series: cell-based. The note with it: 1 μM, 24 h, five lines tested, vs DMSO vehicle. Here is the method:
To evaluate the invasion of synovial fibroblasts into matrigel inserts (collagen matrix) a BD kit (Franklin Lakes, N.J., USA) was used, and the test was performed in accordance with the manufacturer specifications.
When cells reached 70-80% confluence, they were trypsinized with trypsin-EDTA for digestion. Then, 2×10^4 cells were resuspended in 500 μI of free culture medium of fetal calf serum and placed on top of the insert. Montanine at a dose of 1 μM or the same concentration of vehicle (DMSO) was added on top of the insert with the cells. At the lower compartment 750 μI of culture medium with 10% fetal bovine serum was added. The plate was incubated at 37° C. for 24 h in a stove with 5% CO2. After the incubation period, the top of the chamber was cleaned with a swab, stained with crystal violet dye, and the total number of cells that invaded the Matrigel membrane was counted in an optical microscope at 100× magnification. Experiments were performed in duplicate.

The subject of series [8] is lymphocyte migration. The note with it: 100 micrograms/mL, vs placebo; cited from earlier work.
Setting [9] is: 0.5 mg/kg i.p. twice daily for 10 days.

Structures are written as SMILES.

In the case of `CO[C@H]1C=C2[C@H]3C[N@@](Cc4cc5c(cc43)OCO5)[C@H]2C[C@@H]1O` [montanine], in series [1] (3 mg/kg i.p. twice daily), the “pain (joint hypernociception), onset of decrease” value is on record as “decrease as of 3 hours”. In addition, in series [1] (0.3, 1, 3 mg/kg i.p. twice daily, 0, 3, 5 and 24 hours after intra-articular challenge), the “pain (joint hypernociception, von Frey)” value was “reduction in pain at all tested doses”. Moreover, the “total leukocyte migration to the femorotibial joint” value in series [1] (0.3, 1, 3 mg/kg i.p., 24 hours after challenge, compared with saline group) was “significantly reduced at all three doses”. The “histological parameters of the joint” value is “improved all the histological parameters of the joint, except for synovial hyperplasia” in series [2] (0.5 mg/kg i.p. twice daily for 15 days) and “improved all the histological parameters, except for synovial hyperplasia” in series [3] (setting [9]). The arthritis clinical score result in series [2] (0.25 and 0.5 mg/kg i.p. twice daily, from day 8 of treatment) was “reduced clinical score”; in series [3] (0.5 mg/kg i.p. twice daily), “reduction of the clinical score from the third day of treatment”. The “pain (articular nociception)” value in series [3] (setting [9]) is listed as “reduced pain”. Further, the “immunosuppression (complete blood count)” value in series [4] is “does not lead to immunosuppression in any of the tested dosages”. Also, the lymphocyte viability entry is “did not alter cell viability” in series [5] (0.01 μM, 0.1 μM and 1 μM); “no significant difference between the cell group and the group treated with the montanine at 10 μM, however, decreased cell viability can be seen” in series [5] (10 μM); “decreased cell viability can be seen, which was higher in the 100 μM dose” in series [5] (100 μM). Further, the “highest dose that did not exhibit any cytotoxic effects on the cells” value in series [5] (lymphocytes, MTT) stood at 1 µM. The “lymphocyte proliferation stimulated by ConA” value in series [6] (ConA) is “significantly decreased”. In series [6] (LPS), the “lymphocyte proliferation stimulated by LPS” value is given as “had no effect”. The “invasion of synovial fibroblasts” value in series [7] is given as “reduced the invasion of synovial fibroblasts of the five lines tested”. In addition, the “anti-inflammatory effect on the lymphocyte migration model” value in series [8] is recorded as “unable to generate a different effect than the placebo”.
